This passage reports IC50 results from US11447466B2, “Substituted indole compounds useful as inhibitors of TLR7/8/9” (BRISTOL-MYERS SQUIBB COMPANY, priority 2017, dated 2022).

Holding throughout (format): cell-based
One experiment has as its target T1, human TLR7 (Homo sapiens, UniProt Q9NYK1).
T1 construct: host or cells: HEK-Blue cells
T1 sequence (Q9NYK1 27-1049): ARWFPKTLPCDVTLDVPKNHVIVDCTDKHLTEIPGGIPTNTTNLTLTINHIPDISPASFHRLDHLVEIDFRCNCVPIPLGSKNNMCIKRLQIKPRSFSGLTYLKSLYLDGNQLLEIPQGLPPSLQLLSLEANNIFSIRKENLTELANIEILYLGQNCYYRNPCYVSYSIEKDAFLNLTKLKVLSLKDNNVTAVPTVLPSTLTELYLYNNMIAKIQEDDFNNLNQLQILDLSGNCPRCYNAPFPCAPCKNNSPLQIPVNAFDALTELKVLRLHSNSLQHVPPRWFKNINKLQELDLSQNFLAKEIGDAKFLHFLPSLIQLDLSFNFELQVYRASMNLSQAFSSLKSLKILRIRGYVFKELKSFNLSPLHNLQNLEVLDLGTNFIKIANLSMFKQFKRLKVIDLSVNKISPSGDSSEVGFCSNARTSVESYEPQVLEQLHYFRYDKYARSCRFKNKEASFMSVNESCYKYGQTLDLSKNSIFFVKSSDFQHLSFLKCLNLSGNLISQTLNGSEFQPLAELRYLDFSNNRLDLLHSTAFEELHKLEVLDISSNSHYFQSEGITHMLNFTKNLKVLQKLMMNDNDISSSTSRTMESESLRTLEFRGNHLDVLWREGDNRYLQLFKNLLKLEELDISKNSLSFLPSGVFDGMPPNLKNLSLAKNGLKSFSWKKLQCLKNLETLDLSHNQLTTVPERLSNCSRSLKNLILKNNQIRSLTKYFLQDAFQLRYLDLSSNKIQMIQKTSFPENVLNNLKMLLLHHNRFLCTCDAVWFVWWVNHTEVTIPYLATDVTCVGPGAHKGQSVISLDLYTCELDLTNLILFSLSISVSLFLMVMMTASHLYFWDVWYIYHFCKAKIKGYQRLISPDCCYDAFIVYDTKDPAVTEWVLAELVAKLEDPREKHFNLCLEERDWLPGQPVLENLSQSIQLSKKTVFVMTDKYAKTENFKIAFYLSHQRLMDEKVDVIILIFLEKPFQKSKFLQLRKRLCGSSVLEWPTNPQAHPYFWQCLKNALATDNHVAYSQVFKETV
As to the kind of experiment: TLR7 inhibition reporter assay (HEK-Blue SEAP reporter, gardiquimod stimulation). Particulars: HEK-Blue cells overexpressing human TLR7, SEAP reporter, gardiquimod 7.5 μM, 22 hour incubation. The method, boiled down:
(§1)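 Dose–response from 0.05 nM to 50 μM was run in HEK-Blue human TLR7, TLR8 and TLR9 reporter cells. After 30 min at room temperature with compound, ligand was added (TLR7 gardiquimod 7.5 μM; TLR8 R848 15.9 μM; TLR9 ODN2006 5 nM) and SEAP measured next day, at 22 h.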

In the next experiment the target is T2, human TLR8 (Homo sapiens, UniProt Q9NR97).
T2 construct: host or cells: HEK-Blue cells
T2 sequence (Q9NR97 27-1041): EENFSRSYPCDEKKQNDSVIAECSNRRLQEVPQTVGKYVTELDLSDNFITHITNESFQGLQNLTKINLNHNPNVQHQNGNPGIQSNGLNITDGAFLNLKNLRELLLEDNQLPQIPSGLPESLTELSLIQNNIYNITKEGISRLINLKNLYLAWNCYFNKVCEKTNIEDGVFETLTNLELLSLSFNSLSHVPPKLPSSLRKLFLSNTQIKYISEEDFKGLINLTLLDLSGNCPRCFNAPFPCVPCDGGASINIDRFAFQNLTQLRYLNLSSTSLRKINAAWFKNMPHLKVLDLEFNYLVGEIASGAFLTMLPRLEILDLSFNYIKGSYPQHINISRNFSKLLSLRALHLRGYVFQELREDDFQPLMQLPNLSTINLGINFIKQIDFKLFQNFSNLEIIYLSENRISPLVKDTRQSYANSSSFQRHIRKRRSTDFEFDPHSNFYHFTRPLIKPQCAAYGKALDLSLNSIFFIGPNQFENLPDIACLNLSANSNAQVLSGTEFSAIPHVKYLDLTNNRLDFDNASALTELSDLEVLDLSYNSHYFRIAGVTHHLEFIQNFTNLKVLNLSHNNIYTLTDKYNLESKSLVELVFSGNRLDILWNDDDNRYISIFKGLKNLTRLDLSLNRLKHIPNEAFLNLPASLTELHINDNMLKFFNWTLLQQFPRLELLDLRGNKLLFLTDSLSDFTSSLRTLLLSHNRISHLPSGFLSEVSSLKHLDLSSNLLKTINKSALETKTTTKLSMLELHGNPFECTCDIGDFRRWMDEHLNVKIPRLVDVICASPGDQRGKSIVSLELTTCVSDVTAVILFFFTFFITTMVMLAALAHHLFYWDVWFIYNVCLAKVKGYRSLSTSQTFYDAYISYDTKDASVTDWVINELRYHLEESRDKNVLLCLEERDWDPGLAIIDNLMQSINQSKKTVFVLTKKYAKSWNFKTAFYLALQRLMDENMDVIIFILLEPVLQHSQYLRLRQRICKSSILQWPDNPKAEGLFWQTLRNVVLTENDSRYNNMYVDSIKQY
Description: TLR8 inhibition reporter assay (HEK-Blue SEAP reporter, R848 stimulation). Particulars: HEK-Blue cells overexpressing human TLR8, SEAP reporter, R848 15.9 μM, 22 hour incubation. A digest of the protocol:
as §1
Background: In a reporter assay the amount or activity of a reporter protein is the signal.

Another experiment deals with T3, human TLR9 (Homo sapiens, UniProt Q9NR96).
T3 construct: host or cells: HEK-Blue cells
T3 sequence (Q9NR96 26-1032): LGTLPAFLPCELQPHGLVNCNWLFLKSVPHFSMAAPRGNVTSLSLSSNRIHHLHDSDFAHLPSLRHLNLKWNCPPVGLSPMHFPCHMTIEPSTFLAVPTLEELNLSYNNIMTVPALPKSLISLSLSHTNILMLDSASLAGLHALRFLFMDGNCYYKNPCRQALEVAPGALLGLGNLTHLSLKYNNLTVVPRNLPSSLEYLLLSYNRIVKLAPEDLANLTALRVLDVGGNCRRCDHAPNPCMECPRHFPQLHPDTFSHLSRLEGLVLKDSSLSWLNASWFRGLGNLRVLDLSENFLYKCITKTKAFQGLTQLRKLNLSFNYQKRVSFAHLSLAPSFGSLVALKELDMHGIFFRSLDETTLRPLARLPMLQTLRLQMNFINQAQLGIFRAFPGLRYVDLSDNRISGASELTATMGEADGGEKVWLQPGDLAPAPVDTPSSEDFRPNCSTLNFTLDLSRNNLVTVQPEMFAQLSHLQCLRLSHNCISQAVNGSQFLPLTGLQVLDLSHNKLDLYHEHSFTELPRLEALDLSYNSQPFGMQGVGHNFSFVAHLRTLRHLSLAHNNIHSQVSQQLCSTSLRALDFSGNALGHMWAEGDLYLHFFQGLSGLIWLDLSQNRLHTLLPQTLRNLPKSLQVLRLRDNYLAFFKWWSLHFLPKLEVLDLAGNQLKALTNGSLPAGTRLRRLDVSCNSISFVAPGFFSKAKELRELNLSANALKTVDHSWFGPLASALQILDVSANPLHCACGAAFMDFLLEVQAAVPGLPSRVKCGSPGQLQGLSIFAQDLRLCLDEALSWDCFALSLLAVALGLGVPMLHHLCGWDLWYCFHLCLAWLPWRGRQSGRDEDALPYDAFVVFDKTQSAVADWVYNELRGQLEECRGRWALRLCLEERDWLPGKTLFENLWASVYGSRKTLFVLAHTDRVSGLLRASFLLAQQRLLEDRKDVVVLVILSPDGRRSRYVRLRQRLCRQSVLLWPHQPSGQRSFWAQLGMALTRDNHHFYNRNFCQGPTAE
Description: TLR9 inhibition reporter assay (HEK-Blue SEAP reporter, ODN2006 stimulation). The note with it: HEK-Blue cells overexpressing human TLR9, SEAP reporter, ODN2006 5 nM, 22 hour incubation. The method, boiled down: as §1

A word on the IC50: it is the concentration at which inhibition is half-maximal. A lower IC50 goes with inhibition by little substance. As for `COCCOCCOCCN1CCC(c2ccc3[nH]c(-c4cn(C)c(=O)c(Cl)c4C)c(C(C)C)c3c2)CC1` [Example 98, 3-chloro-5-(3-isopropyl-5-(1-(2-(2-(2-methoxyethoxy)ethoxy)ethyl)piperidin-4-yl)-1H-indol-2-yl)-1,4-dimethylpyridin-2(1H)-one], the values for the IC50 on human TLR7, at human TLR8 and on human TLR9 were 20.6 nM, 10.4 nM and 8750 nM, respectively.

With `Cc1cc(-c2[nH]c3ccc(C4CCN(C5CCCCC5)CC4)cc3c2C(C)C)cn(C)c1=O` [Example 87, 5-(5-(1-cyclohexylpiperidin-4-yl)-3-isopropyl-1H-indol-2-yl)-1,3-dimethylpyridin-2(1H)-one], the IC50 against human TLR7 came to 3.1 nM; against human TLR8 it was 5.7 nM; against human TLR9 it was 2560 nM.

Consider `CNC(=O)CN1CCC(c2ccc3[nH]c(-c4cc(C)c(=O)n(Cc5ccccc5)c4)c(C(C)C)c3c2)CC1` [Example 162, 2-(4-(2-(1-benzyl-5-methyl-6-oxo-1,6-dihydropyridin-3-yl)-3-isopropyl-1H-indol-5-yl)piperidin-1-yl)-N-methylacetamide], for which the IC50 on human TLR7 is 8.4 nM; against human TLR8, 99.4 nM; against human TLR9, 4120 nM.

On to `CC(C)c1c(-c2cc(-c3cncnc3)c(=O)n(C)c2)[nH]c2ccc(C3CCN(CC4COC4)CC3)cc12` [Example 94, 5-(3-isopropyl-5-(1-(oxetan-3-ylmethyl)piperidin-4-yl)-1H-indol-2-yl)-1-methyl-3-(pyrimidin-5-yl)pyridin-2(1H)-one], for which the IC50 on human TLR7 came out at 8 nM; against human TLR8, 1.3 nM; against human TLR9 it was 2030 nM.

Regarding `Cc1c(-c2[nH]c3ccc(C4CCN(CC#N)CC4)cc3c2C(C)C)cn(C)c(=O)c1Cl` [Example 96, 2-(4-(2-(5-chloro-1,4-dimethyl-6-oxo-1,6-dihydropyridin-3-yl)-3-isopropyl-1H-indol-5-yl)piperidin-1-yl)acetonitrile], the IC50 is 2 nM against human TLR7, 14.3 nM against human TLR8 and 2860 nM at human TLR9.

On to `Cc1cc(-c2[nH]c3ccc(C4CCN(C)CC4)cc3c2C(C)C)cn(C)c1=O` [Example 181, 5-(3-isopropyl-5-(1-methylpiperidin-4-yl)-1H-indol-2-yl)-1,3-dimethylpyridin-2(1H)-one], for which the IC50 amounted to 2 nM at human TLR7, 8.5 nM against human TLR8 and 13500 nM against human TLR9.

`COc1c(C)c(-c2[nH]c3ccc(C4CCN(CC(C)(C)O)CC4)cc3c2C(C)C)cn(C)c1=O` [Example 317, 5-(5-(1-(2-hydroxy-2-methylpropyl)piperidin-4-yl)-3-isopropyl-1H-indol-2-yl)-3-methoxy-1,4-dimethylpyridin-2(1H)-one]: the IC50 was determined as 19.3 nM at human TLR7, 7.2 nM against human TLR8 and 3580 nM against human TLR9.

For `Cc1c(-c2[nH]c3ccc(C4CCN(C5CCOCC5)CC4)cc3c2C(C)C)cn(C)c(=O)c1C` [Example 206, 5-(3-isopropyl-5-(1-(tetrahydro-2H-pyran-4-yl)piperidin-4-yl)-1H-indol-2-yl)-1,3,4-trimethylpyridin-2(1H)-one], the results for the IC50 on human TLR7, at human TLR8 and against human TLR9 were 18.9 nM, 2.6 nM and 4490 nM, respectively.

Take `CC(C)c1c(-c2cc(-c3cccc(C#N)c3)c(=O)n(C)c2)[nH]c2ccc(C3CCNCC3)cc12` [Example 56, 3-(5-(3-isopropyl-5-(piperidin-4-yl)-1H-indol-2-yl)-1-methyl-2-oxo-1,2-dihydropyridin-3-yl)benzonitrile]: the IC50 is 13.7 nM against human TLR7, 49 nM against human TLR8 and 408 nM against human TLR9.

For `Cc1cc(-c2[nH]c3ccc(C4CCN(C5CCC(C(C)(C)O)CC5)CC4)cc3c2C(C)C)cn(C)c1=O` (stereo not drawn) [Example 268, 5-(5-(1-(4-(2-hydroxypropan-2-yl)cyclohexyl)piperidin-4-yl)-3-isopropyl-1H-indol-2-yl)-1,3-dimethylpyridin-2(1H)-one], the IC50 came to 2.4 nM against human TLR7, 6.6 nM against human TLR8 and 2630 nM on human TLR9.

As to `COCCn1cc(-c2[nH]c3ccc(C4CCN(C5CCOCC5)CC4)cc3c2C(C)C)cc(C)c1=O` [Example 261, 5-(3-isopropyl-5-(1-(tetrahydro-2H-pyran-4-yl)piperidin-4-yl)-1H-indol-2-yl)-1-(2-methoxyethyl)-3-methylpyridin-2(1H)-one], the IC50 is 8.8 nM against human TLR7, 7.1 nM at human TLR8 and 3360 nM at human TLR9.

`Cc1c(-c2[nH]c3ccc(C4CCN(C(C)(C)C(N)=O)CC4)cc3c2C(C)C)cn(C)c(=O)c1Cl` [Example 154, 2-(4-(2-(5-chloro-1,4-dimethyl-6-oxo-1,6-dihydropyridin-3-yl)-3-isopropyl-1H-indol-5-yl)piperidin-1-yl)-2-methylpropanamide]: the values for the IC50 at human TLR7, against human TLR8 and on human TLR9 were 4.6 nM, 26.6 nM and 13800 nM, respectively.
